# Measured values as given in BindingDB's records for doi:10.1021/jm050019i (University of Illinois At Chicago, 2005).
# Target: T1, Dimer of Gag-Pol polyprotein [501-599,Q508K,L534I,L564I,C568A,C596A] (Human immunodeficiency virus 1, UniProt P03367, C568A/C596A/L534I/L564I/Q508K)
# T1 construct: 501-599
# Experiment: Protease Inhibition Assay
# Details: pH 6.4; 25 °C
# Method: The Ki values were determined using fluorogenic substrate, 2-(aminobenzoyl)-Thr-Ile-Nle-Phe(p-NO2)-Gln-ArgNH2. A standard curve relating changes in fluorescent intensity to changes in concentration of product was used to convert fluorescent changes into molar velocities. The amount of cleavage was determined by HPLC.
compound,measurement,value
"COc1ccc(S(=O)(=O)N(CC(C)C)C[C@@H](O)[C@@H]2CCCC/C=C\COc3c(O)cccc3C(=O)N2)cc1 [(2R)-2-hydroxy-2-[(9S)-15-hydroxy-11-oxo-2,5,6,7,8,9,10,11-octahydro-1,10-benzoxazacyclotridecin-9-yl]-N-(4-methoxyphenyl)-N-(2-methylpropyl)ethane-1-sulfonamido]",Ki,2 nM
